Values of other authors as cited in patent publication US12390418B2, “Biphasic compositions comprising one or both of carbonate and phosphate” (NATURAL EXTRACTION SYSTEMS, LLC, priority 2021, dated 2025).

Details: in water at 20 degrees Celsius

| Molecule | association constant for protonation (Kb) |
| --- | --- |
| O=C(O)O [carbonate] | approximately 210 micromolar |
| O=P(O)(O)O [hydrogen phosphate] | approximately 160 nanomolar |
| O=C(O)O [bicarbonate] | approximately 22 nanomolar |
| phosphate | approximately 23 millimolar |
